What was measured:
[1] = in vivo
[2] = rats; cited from earlier work

Structure (SMILES)	Caffeine pharmacokinetic parameters sampled in plasma or ISF [1]	Concentration in ISF compared to serum [2]
Cn1c(=O)c2c(ncn2C)n(C)c1=O [caffeine]	not significantly different	
CC/N=c1\cc2oc3cc(NCC)c(C)cc3c(-c3ccccc3C(=O)OCC)c-2cc1C [rhodamine 6G]		lower than in serum

Source: PMC7871333 (Science translational medicine, 2020)
